Earlier results as cited in patent publication US20180179476A1, “SOLVENT COMPOSITIONS FOR USE AS HEPTANE REPLACEMENTS” (TBF ENVIRONMENTAL TECHNOLOGY INC., priority 2015, published 2018).

In the case of COC(C)=O [Methyl acetate], the stability (in the presence of strong aqueous bases or aqueous acids) is listed as “not stable” and the solubility in water (room temperature) is listed as 25%.
